biological target: USP7 (Homo sapiens, UniProt Q93009); assay: USP7 inhibitory potency (Table 1); assay type: biochemical
Sequence (Q93009 whole entry): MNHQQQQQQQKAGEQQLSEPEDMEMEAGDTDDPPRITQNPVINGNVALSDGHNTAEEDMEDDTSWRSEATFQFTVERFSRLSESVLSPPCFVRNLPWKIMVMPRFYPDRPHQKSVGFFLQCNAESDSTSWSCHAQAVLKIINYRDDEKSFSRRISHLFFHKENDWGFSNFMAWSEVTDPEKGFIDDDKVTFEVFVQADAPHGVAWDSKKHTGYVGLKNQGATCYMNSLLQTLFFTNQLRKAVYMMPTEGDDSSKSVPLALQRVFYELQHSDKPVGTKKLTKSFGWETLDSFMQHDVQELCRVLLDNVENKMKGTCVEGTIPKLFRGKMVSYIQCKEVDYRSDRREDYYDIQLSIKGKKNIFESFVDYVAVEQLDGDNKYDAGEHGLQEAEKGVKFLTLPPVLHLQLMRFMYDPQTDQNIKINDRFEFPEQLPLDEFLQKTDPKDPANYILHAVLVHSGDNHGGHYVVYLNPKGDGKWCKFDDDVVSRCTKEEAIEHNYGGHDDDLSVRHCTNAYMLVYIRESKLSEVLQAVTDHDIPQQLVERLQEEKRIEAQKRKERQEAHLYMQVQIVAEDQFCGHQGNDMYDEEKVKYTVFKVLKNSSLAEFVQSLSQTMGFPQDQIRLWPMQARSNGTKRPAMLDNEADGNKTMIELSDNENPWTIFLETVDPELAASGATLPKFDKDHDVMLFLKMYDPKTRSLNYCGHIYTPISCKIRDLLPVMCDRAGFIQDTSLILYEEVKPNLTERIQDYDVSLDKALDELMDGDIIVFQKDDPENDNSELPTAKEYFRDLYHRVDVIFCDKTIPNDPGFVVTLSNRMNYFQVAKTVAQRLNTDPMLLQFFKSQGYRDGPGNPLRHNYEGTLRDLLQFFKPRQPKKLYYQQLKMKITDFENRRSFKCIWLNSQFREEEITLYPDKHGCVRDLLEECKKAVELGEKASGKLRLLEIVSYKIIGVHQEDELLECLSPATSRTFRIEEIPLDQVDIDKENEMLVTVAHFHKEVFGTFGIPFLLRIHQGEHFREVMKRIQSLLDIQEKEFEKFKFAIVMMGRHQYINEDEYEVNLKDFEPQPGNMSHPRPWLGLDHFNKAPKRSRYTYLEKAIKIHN

| Structure (SMILES) | IC50 |
| --- | --- |
| C[C@H]1CN(C(=O)C2Cc3cc(Cl)cc(-c4ccnc5[nH]ccc45)c3O2)CCN1 (stereo partly drawn) [(5-chloro-7-(1H-pyrrolo[2,3-b]pyridin-4-yl)-2,3-dihydrobenzofuran-2-yl)((S)-3-methylpiperazin-1-yl)methanone] | 1 to 10 µM |
| O=C(C1Cc2cc(Cl)cc(-c3ccnc4[nH]ccc34)c2O1)N1CCNCC1 (centres unmarked) [(5-chloro-7-(1H-pyrrolo[2,3-b]pyridin-4-yl)-2,3-dihydrobenzofuran-2-yl)(piperazin-1-yl)methanone] | < 1 µM |
| O=C(C1CCNCC1)C1Cc2cc(Cl)cc(-c3ccnc4[nH]ccc34)c2O1 (centres unmarked) [(5-chloro-7-(1H-pyrrolo[2,3-b]pyridin-4-yl)-2,3-dihydrobenzofuran-2-yl)(piperidin-4-yl)methanone] | 1 to 10 µM |
| O=C(C1Cc2cc(Cl)cc(-c3ccnc4cc[nH]c34)c2O1)N1CCNCC1 (centres unmarked) [(5-chloro-7-(1H-pyrrolo[3,2-b]pyridin-7-yl)-2,3-dihydrobenzofuran-2-yl)(piperazin-1-yl)methanone] | 1 to 10 µM |
| O=C(C1Cc2cc(Cl)cc(-c3ccnc(NCCO)c3)c2O1)N1CCNCC1 (centres unmarked) [(5-chloro-7-(2-((2-hydroxyethyl)amino)pyridin-4-yl)-2,3-dihydrobenzofuran-2-yl)(piperazin-1-yl)methanone] | 1 to 10 µM |
| C[C@H](O)c1cc2c(-c3cc(Cl)cc4c3OC(C(=O)N3CCNCC3)C4)ccnc2[nH]1 (stereo partly drawn) [(5-chloro-7-(2-((S)-1-hydroxyethyl)-1H-pyrrolo[2,3-b]pyridin-4-yl)-2,3-dihydrobenzofuran-2-yl)(piperazin-1-yl)methanone] | 1 to 10 µM |
| O=C(C1Cc2cc(Cl)cc(-c3ccnc4[nH]c(CO)cc34)c2O1)N1CCNCC1 (centres unmarked) [(5-chloro-7-(2-(hydroxymethyl)-1H-pyrrolo[2,3-b]pyridin-4-yl)-2,3-dihydrobenzofuran-2-yl)(piperazin-1-yl)methanone] | < 1 µM |
| O=C(C1Cc2cc(Cl)cc(-c3ccnc4[nH]c(Cc5cc6ccccc6cn5)cc34)c2O1)N1CCNCC1 (centres unmarked) [(5-chloro-7-(2-(isoquinolin-3-ylmethyl)-1H-pyrrolo[2,3-b]pyridin-4-yl)-2,3-dihydrobenzofuran-2-yl)(piperazin-1-yl)methanone] | 1 to 10 µM |
| O=C(C1Cc2cc(Cl)cc(-c3ccnc(Nc4ccccc4)c3)c2O1)N1CCNCC1 (centres unmarked) [(5-chloro-7-(2-(phenylamino)pyridin-4-yl)-2,3-dihydrobenzofuran-2-yl)(piperazin-1-yl)methanone] | 10 to 30 µM |
| O=C(C1Cc2cc(Cl)cc(-c3ccnc4[nH]c(Cc5cccnc5)cc34)c2O1)N1CCNCC1 (centres unmarked) [(5-chloro-7-(2-(pyridin-3-ylmethyl)-1H-pyrrolo[2,3-b]pyridin-4-yl)-2,3-dihydrobenzofuran-2-yl)(piperazin-1-yl)methanone] | 1 to 10 µM |
| O=C(C1Cc2cc(Cl)cc(-c3ccnc4[nH]c(C5CC5)cc34)c2O1)N1CCNCC1 (centres unmarked) [(5-chloro-7-(2-cyclopropyl-1H-pyrrolo[2,3-b]pyridin-4-yl)-2,3-dihydrobenzofuran-2-yl)(piperazin-1-yl)methanone] | 10 to 30 µM |
| O=C(C1Cc2cc(Cl)cc(-c3ccnc(O)c3)c2O1)N1CCNCC1 (centres unmarked) [(5-chloro-7-(2-hydroxypyridin-4-yl)-2,3-dihydrobenzofuran-2-yl)(piperazin-1-yl)methanone] | 1 to 10 µM |
| O=C(C1Cc2cc(Cl)cc(-c3ccnc4[nH]c(-c5ccccc5)cc34)c2O1)N1CCNCC1 (centres unmarked) [(5-chloro-7-(2-phenyl-1H-pyrrolo[2,3-b]pyridin-4-yl)-2,3-dihydrobenzofuran-2-yl)(piperazin-1-yl)methanone] | 10 to 30 µM |
| Cc1c[nH]c2nccc(-c3cc(Cl)cc4c3OC(C(=O)N3CCNCC3)C4)c12 (centres unmarked) [(5-chloro-7-(3-methyl-1H-pyrrolo[2,3-b]pyridin-4-yl)-2,3-dihydrobenzofuran-2-yl)(piperazin-1-yl)methanone] | 1 to 10 µM |
| O=C(C1Cc2cc(Cl)cc(-c3ccnc4c3CCCC4)c2O1)N1CCNCC1 (centres unmarked) [(5-chloro-7-(5,6,7,8-tetrahydroquinolin-4-yl)-2,3-dihydrobenzofuran-2-yl)(piperazin-1-yl)methanone] | < 1 µM |
| O=C(C1Cc2cc(Cl)cc(-c3ccnc4c3CCC4)c2O1)N1CCNCC1 (centres unmarked) [(5-chloro-7-(6,7-dihydro-5H-cyclopenta[b]pyridin-4-yl)-2,3-dihydrobenzofuran-2-yl)(piperazin-1-yl)methanone] | < 1 µM |
| O=C(C1Cc2cc(Cl)cc(-c3ccnc4ccc(Cl)cc34)c2O1)N1CCNCC1 (centres unmarked) [(5-chloro-7-(6-chloroquinolin-4-yl)-2,3-dihydrobenzofuran-2-yl)(piperazin-1-yl)methanone] | 10 to 30 µM |
| O=C(C1Cc2cc(Cl)cc(-c3ccnc4ccc(F)cc34)c2O1)N1CCNCC1 (centres unmarked) [(5-chloro-7-(6-fluoroquinolin-4-yl)-2,3-dihydrobenzofuran-2-yl)(piperazin-1-yl)methanone] | 1 to 10 µM |
| COc1ccc2nccc(-c3cc(Cl)cc4c3OC(C(=O)N3CCNCC3)C4)c2c1 (centres unmarked) [(5-chloro-7-(6-methoxyquinolin-4-yl)-2,3-dihydrobenzofuran-2-yl)(piperazin-1-yl)methanone] | 10 to 30 µM |

| Structure (SMILES) | IC50 |
| --- | --- |
| O=C(C1Cc2cc(Cl)cc(-c3ccnc4cc(CO)ccc34)c2O1)N1CCNCC1 (centres unmarked) [(5-chloro-7-(7-(hydroxymethyl)quinolin-4-yl)-2,3-dihydrobenzofuran-2-yl)(piperazin-1-yl)methanone] | 1 to 10 µM |
| O=C(C1Cc2cc(Cl)cc(-c3ccnc4cc(C(F)(F)F)ccc34)c2O1)N1CCNCC1 (centres unmarked) [(5-chloro-7-(7-(trifluoromethyl)quinolin-4-yl)-2,3-dihydrobenzofuran-2-yl)(piperazin-1-yl)methanone] | 1 to 10 µM |
| COc1ccc2c(-c3cc(Cl)cc4c3OC(C(=O)N3CCNCC3)C4)ccnc2c1 (centres unmarked) [(5-chloro-7-(7-methoxyquinolin-4-yl)-2,3-dihydrobenzofuran-2-yl)(piperazin-1-yl)methanone] | 1 to 10 µM |
| O=C(C1Cc2cc(Cl)cc(-c3ccnc4c(F)cccc34)c2O1)N1CCNCC1 (centres unmarked) [(5-chloro-7-(8-fluoroquinolin-4-yl)-2,3-dihydrobenzofuran-2-yl)(piperazin-1-yl)methanone] | 10 to 30 µM |
| COc1cccc2c(-c3cc(Cl)cc4c3OC(C(=O)N3CCNCC3)C4)ccnc12 (centres unmarked) [(5-chloro-7-(8-methoxyquinolin-4-yl)-2,3-dihydrobenzofuran-2-yl)(piperazin-1-yl)methanone] | 10 to 30 µM |
| O=C(C1Cc2cc(Cl)cc(-c3ccnc4ccccc34)c2O1)N1CCNCC1 (centres unmarked) [(5-chloro-7-(quinolin-4-yl)-2,3-dihydrobenzofuran-2-yl)(piperazin-1-yl)methanone] | 1 to 10 µM |
| O=C(C1Cc2cc(Cl)cc(-c3ccnc4c3ccn4Cc3ccccc3)c2O1)N1CCNCC1 (centres unmarked) [(7-(1-Benzyl-1H-pyrrolo[2,3-b]pyridin-4-yl)-5-chloro-2,3-dihydrobenzofuran-2-yl)(piperazin-1-yl)methanone] | 10 to 30 µM |
| O=C(C1Cc2cc(Cl)cc(-c3ccnc(NCc4ccccc4)c3)c2O1)N1CCNCC1 (centres unmarked) [(7-(2-(benzylamino)pyridin-4-yl)-5-chloro-2,3-dihydrobenzofuran-2-yl)(piperazin-1-yl)methanone] | 1 to 10 µM |
| Nc1cc(-c2cc(Cl)cc3c2OC(C(=O)N2CCNCC2)C3)ccn1 (centres unmarked) [(7-(2-Aminopyridin-4-yl)-5-chloro-2,3-dihydrobenzofuran-2-yl)(piperazin-1-yl)methanone] | 1 to 10 µM |
| Nc1nccc(-c2cc(Cl)cc3c2OC(C(=O)N2CCNCC2)C3)c1Cl (centres unmarked) [(7-(2-amino-3-chloropyridin-4-yl)-5-chloro-2,3-dihydrobenzofuran-2-yl)(piperazin-1-yl)methanone] | 1 to 10 µM |
| Cc1c(-c2cc(Cl)cc3c2OC(C(=O)N2CCNCC2)C3)ccnc1N (centres unmarked) [(7-(2-amino-3-methylpyridin-4-yl)-5-chloro-2,3-dihydrobenzofuran-2-yl)(piperazin-1-yl)methanone] | 1 to 10 µM |
| O=C(C1Cc2cc(Cl)cc(-c3ccnc4[nH]c(Cc5ccccc5)cc34)c2O1)N1CCNCC1 (centres unmarked) [(7-(2-benzyl-1H-pyrrolo[2,3-b]pyridin-4-yl)-5-chloro-2,3-dihydrobenzofuran-2-yl)(piperazin-1-yl)methanone] | 1 to 10 µM |
| OCc1cc2nccc(-c3cc(Cl)cc4c3OC(c3nnn5c3CNCC5)C4)c2s1 (centres unmarked) [(7-(5-chloro-2-(4,5,6,7-tetrahydro-[1,2,3]triazolo[1,5-a]pyrazin-3-yl)-2,3-dihydrobenzofuran-7-yl)thieno[3,2-b]pyridin-2-yl)methanol] | 1 to 10 µM |
| OCc1cc2nccc(-c3cc(Cl)cc4c3OC(c3onc5c3CNCC5)C4)n2n1 (centres unmarked) [(7-(5-chloro-2-(4,5,6,7-tetrahydroisoxazolo[4,3-c]pyridin-3-yl)-2,3-dihydrobenzofuran-7-yl)pyrazolo[1,5-a]pyrimidin-2-yl)methanol] | 1 to 10 µM |
| CN(C)[C@H]1CCc2noc(C3Cc4cc(Cl)cc(-c5ccnc6cc(CO)sc56)c4O3)c2C1 (stereo partly drawn) [(7-(5-chloro-2-((S)-5-(dimethylamino)-4,5,6,7-tetrahydrobenzo[c]isoxazol-3-yl)-2,3-dihydrobenzofuran-7-yl)thieno[3,2-b]pyridin-2-yl)methanol] | 1 to 10 µM |
| CC1(c2onc3c2CNCC3)Cc2cc(Cl)cc(-c3ccnc4cc(CO)sc34)c2O1 (centres unmarked) [(7-(5-chloro-2-methyl-2-(4,5,6,7-tetrahydroisoxazolo[4,3-c]pyridin-3-yl)-2,3-dihydrobenzofuran-7-yl)thieno[3,2-b]pyridin-2-yl)methanol] | < 1 µM |
| Cn1nc2c(c1[C@H]1Cc3cc(Cl)cc(-c4ccnc5cc(CO)sc45)c3O1)CC(N1CCC1)CC2 (stereo partly drawn) [(7-((2R)-2-(5-(azetidin-1-yl)-2-methyl-4,5,6,7-tetrahydro-2H-indazol-3-yl)-5-chloro-2,3-dihydrobenzofuran-7-yl)thieno[3,2-b]pyridin-2-yl)methanol] | < 1 µM |
| CN(C)C1CCc2nn(C)c([C@H]3Cc4cc(Cl)cc(-c5ccnc6cc(CO)sc56)c4O3)c2C1 (stereo partly drawn) [(7-((2R)-5-chloro-2-(5-(dimethylamino)-2-methyl-4,5,6,7-tetrahydro-2H-indazol-3-yl)-2,3-dihydrobenzofuran-7-yl)thieno[3,2-b]pyridin-2-yl)methanol] | < 1 µM |
| CN(C)C1CCc2noc([C@H]3Cc4cc(Cl)cc(-c5ccnc6cc(CO)sc56)c4O3)c2C1 (stereo partly drawn) [(7-((2R)-5-chloro-2-(5-(dimethylamino)-4,5,6,7-tetrahydrobenzo[c]isoxazol-3-yl)-2,3-dihydrobenzofuran-7-yl)thieno[3,2-b]pyridin-2-yl)methanol] | < 1 µM |

Reference: US20210317134A1, “UBIQUITIN-SPECIFIC-PROCESSING PROTEASE 7 (USP7) MODULATORS AND USES THEREOF” (RAPT THERAPEUTICS, INC., priority 2019, published 2021)
